In US20170157000A1, “COSMETIC PRODUCT WITH LIPOSOMAL GROWTH FACTORS” (DERMOPARTNERS, S.L., priority 2014, published 2017):

Key:
[1] = test system: human keratinocytes (HaCaT); experiment: MTT cell proliferation assay in human keratinocytes; type: cell-based; conditions: 72 hours
From the text: (§1) This assay is based on metabolic reduction of bromide 3-(4,5-dimethylthiazol-2-yl)-2,5-diphenyltetrazolium (MTT) carried out by the mitochondrial succinate dehydrogenase enzyme in a blue colored compound (formazan), allowing the mitochondrial functionality of the treated cells to be determined. This method has been very widely used to measure cell survival and proliferation. The quantity of live cells is proportional to the quantity of formazan produced. This method was developed by Mosmann in 1983, modified in 1986 by Francois Denizot and Rita Lang. • 1. Using trypsin, separate the cells and re-suspend them in supplemented culture medium (10% of bovine fetal serum and antibiotic). • 2. Determine the number of cells required per well using a Neubauer camera (HaCaT: 5,000 cells/96 well, 30,000 cells/24 well; HSF: 4,000 cells/96 well, 30,000 cells/24 well. • 3. Incubate at 37° C. and 5% of CO2 for 24 hours to allow for the adherence thereof. • 4. Prepare the mixtures of free and liposomated factor at the indicated concentrations, remove the medium and add the mixtures. • 5. Incubate at 37° C. and 5% of CO2 for 72 hours. • 6. Add MTT (1.9 mg/ml) in PBS solution (25 μl total) over the medium • 7. Incubate for 3 hours at 37° C. to allow for the formation of formazan crystals. • 8. Then remove the supernatant and add 100 μl of DMSO. • 9. Incubate for 30 minutes at 37° C. to allow for the formazan crystals to dissolve • 10. The optical density reading (OD) is carried out in a spectrophotometer at a wavelength of 570 nm. • The viability percentage is obtained in the following manner: % viability—DO cells treated×100/DO control cells

human fibroblasts (HSF) [2] = experiment: MTT cell proliferation assay in human fibroblasts; type: cell-based; conditions: 72 hours
From the text: as §1

[3] = test system: human keratinocytes (HaCaT); experiment: Wound healing assay (cell migration) in human keratinocytes; type: cell-based; conditions: 1 ng/ml; for wound closed more quickly than in the control cells: at 24 hours of treatment; for wound closure: at 48 hours
From the text: (§2) The objective of the wound healing assay is the study of cell migration. It is based on observing the behavior of a confluent cell monolayer on which a hole or wound has been previously made. The cells at the border of the hole move towards the opening until new cell-cell contacts are established, thus closing the wound.
(§3) The basic steps involve creating the wound or cell free area on the cell monolayer, the capture of images periodically during the experiment and the comparison of all the images to determine the velocity of cell migration.
• 1. Cultivate the cells until confluence (100% approx.) in plates of 6 wells (HaCaT: 500,000 cells/6 well; HSF: 500,000 cells/6 well) • 2. Incubate at 37° C. and 5% of CO2 for 24 hours. • 3. Scaling of the wounds (2 wounds per horizontal trajectory well using yellow sterile points (P200). They are dragged along the monolayer with an angle of inclination of 30 degrees (not perpendicular to the plate) and guided with a previously marked section. Mark three points for taking measurements. • 4. Leave to rest for 15 minutes before adding the treatment. • 5. Prepare the mixtures of free and liposomated factors at a concentration of 1 ng/ml, the medium is removed and add the mixtures. • 6. Incubate at 37° C. and 5% of CO2 for 72 hours. • 7. Take measurements at the times 0, 24, 48 and 72 hours.
The percentage of migration is obtained in the following manner:
(§4) % migration=(time measured 0−time measured X/time measured 0)*100

human fibroblasts (HSF) [4] = experiment: Wound healing assay (cell migration) in human fibroblasts; type: cell-based; conditions: 1 ng/ml
From the text: as §2, §3
• 1. Cultivate the cells until confluence (100% approx.) in plates of 6 wells (HaCaT: 500,000 cells/6 well; HSF: 500,000 cells/6 well) • 2. Incubate at 37° C. and 5% of CO2 for 24 hours. • 3. […]
as §4

[5] = test system: transcripts of the gene of the elastin; experiment: Induction of elastin synthesis by quantitative PCR in keratinocytes; type: cell-based, human; conditions: control = value 1, dose dependent, 72 hours
From the text: (§5) PCR in real time or quantitative PCR is a variation of standard PCR used for quantifying DNA or messenger RNA (mRNA) of a sample. Using specific sequence primers, it is possible to determine the number of copies or the relative quantity of a determined DNA or RNA sequence.
(§6) When PCR in real time is combined with a retro-transcription or RT reaction (RTPCR), the mRNA quantity of a sample may be determined by means of a relative quantification. Said quantification is termed relative if the relative quantity or ratio of mRNA of a specific gene is compared with respect to the mRNA quantity of a constitutive gene (endogenous control, GAPDH in this case) among different samples. This is what is termed as normalization of the specific gene expression or normalizing with respect to the different total concentration of RNA of the samples since if the quantity of endogenous control varies it is due to changes in the total RNA quantity used in the synthesis of cDNA, not to changes in its expression. For the quantification, the quantity of amplicon produced is measured in each cycle of PCR. The quantification of the product is produced by means of the addition of fluorophores which join to the amplicon in a quantitative manner such that the greater the product, the greater the fluorescence that will be emitted. […]

[6] = test system: transcripts of the gene of the elastin; experiment: Induction of elastin synthesis by quantitative PCR in fibroblasts; type: cell-based, human; conditions: control = value 1, dose dependent, 72 hours
From the text: as §5, §6

TNFa transcripts = experiment: Anti-inflammatory effect by quantitative PCR after LPS, TNFa transcripts; type: cell-based, human; conditions: cells with prior inflammation induced with 200 ng/ml LPS for three hours, dose dependent
From the text: as §5, §6

IL6 transcripts = experiment: Anti-inflammatory effect by quantitative PCR after LPS, IL6 transcripts; type: cell-based, human; conditions: cells with prior inflammation induced with 200 ng/ml LPS for three hours, dose dependent
From the text: as §5, §6

[7] = concentrations greater than 1 ng/ml
[8] = low concentrations 0.01 ng/ml-0.5 ng/ml, untreated cells = 100% proliferation

Row | Molecule | cell proliferation above the untreated cells [1, 7] | cell proliferation above the untreated cells [1, 8] | cell proliferation above the untreated cells (human fibroblasts (HSF) [2]; [7]) | cell proliferation above the untreated cells (human fibroblasts (HSF) [2]; [8]) | wound closed more quickly than in the control cells [3] | wound closure [3] | repair velocity of the wound, more quickly with respect to the control (human fibroblasts (HSF) [4]) | synthesis of elastin (elastin gene transcripts) with respect to the control cells [5] | synthesis of elastin (elastin gene transcripts) with respect to the control cells [6] | transcript levels of TNFa (TNFa transcripts) | transcript levels of IL6 (IL6 transcripts) | cell proliferation (untreated cells = 100%) (human fibroblasts (HSF) [2]; concentration not given) | cell proliferation (untreated cells = 100%) (human fibroblasts (HSF) [2]; [7]) | repair velocity of the wound versus control cells (human fibroblasts (HSF) [4]) | cell proliferation above the untreated cells (human fibroblasts (HSF) [2]; concentration of 0.5 ng/ml)
1 | Nicotiana benthamiana Sh-Polypeptide-45 [GM-CSF free factor] | around 20% | 20% | around 60% | 100% | 13% | completely closed | 20% | increase in the synthesis of elastin | increase in the synthesis of elastin | decrease | decrease |  |  |  | 
2 | Nicotiana benthamiana Sh-Polypeptide-7 [HGH free factor] | around 20% |  |  |  | 40% | completely closed |  | increase in the synthesis of elastin | increase in the synthesis of elastin | decrease | decrease | around 100% | around 100% | hardly any difference | 
3 | follistatin (protein, UniProt P19883 30-344, looked up, growth factor follistatin analyzed in free form) Follistatin: GNCWLRQAKNGRCQVLYKTELSKEECCSTGRLSTSWTEEDVNDNTLFKWMIFNGGAPNCIPCKETCENVDCGPGKKCRMNKKNKPRCVCAPDCSNITWKGPVCGLDGKTYRNECALLKARCKEQPELEVQYQGRCKKTCRDVFCPGSSTCVVDQTNNAYCVTCNRICPEPASSEQYLCGNDGVTYSSACHLRKATCLLGRSIGLAYEGKCIKAKSCEDIQCTGGKKCLWDFKVGRGRCSLCDELCPDSKSDEPVCASDNATYASECAMKEAACSSGVLLEVKHSGSCNSISEDTEEEEEDEDQDYSFPISSILEW |  |  | maintains cell proliferation around the control |  |  |  |  |  |  |  |  |  |  |  | 40%
